US5556996A, “Oxiranyls disubstituted with a phenyl group and a substituted chromanyl or tetrahydroquinolinyl group having retinoid like activity” (Allergan, priority 1994, dated 1996)

System: ornithine decarboxylase (ODC)
Assay: Inhibition of TPA induction of ornithine decarboxylase (ODC assay)
Type: biochemical
Conditions: TPA-induced ODC activity
From the text: The retinoic acid-like activity of these compounds is confirmed through the classic measure of retinoic acid activity involving the effects of retinoic acid on ornithine decarboxylase. The original work on the correlation between retinoic acid and decrease in cell proliferation was done by Verma & Boutwell, Cancer Research, 1977, 37,2196-2201. That reference discloses that ornithine decarboxylase (ODC) activity increased precedent to polyamine biosynthesis. It has been established elsewhere that increases in polyamine synthesis can be correlated or associated with cellular proliferation. Thus, if ODC activity could be inhibited, cell hyperproliferation could be modulated. Although all cases for ODC activity increases are unknown, it is known that 12-0-tetradecanoylphorbol-13-acetate (TPA) induces ODC activity. Retinoic acid inhibits this induction of ODC activity by TPA. […] Activity of exemplary compounds of the present invention in the above-described ODC assay is disclosed in Table 1 which provides IC80 data for the exemplary compounds. ("IC80 " is that concentration of the test compound which causes 80% inhibition in the ODC assay).

CCOC(=O)c1ccc([C@@H]2O[C@@]2(C)c2ccc3c(c2)C(C)(C)CC(C)(C)O3)cc1 (relative stereo) [Compound 1, Ethyl(±)-(E)-4-[2-methyl-2-(2,2,4,4-tetramethylchroman-6-yl)oxiran-1-yl]benzoate]
IC80 conc (concentration of the test compound which causes 80% inhibition in the ODC assay): > 300 nmols

CC1(C)CC(C)(C)c2cc([C@]3(C)O[C@H]3c3ccc(C(=O)O)cc3)ccc2O1 (relative stereo) [Compound 2, (±)-(E)T4-[2-methyl-2-(2,2,4,4-tetramethylchroman-6-yl)oxiran-1-yl]benzoic acid]
IC80 conc (concentration of the test compound which causes 80% inhibition in the ODC assay): 73 nmols
